Measured values taken from patent US8852628B1, “Transdermal drug delivery system for diclofenac” (Noven Pharmaceuticals, Inc., priority 2009, dated 2014).

Experiment: in-vitro permeation study utilizing modified Franz cells (flux)
Assay type: in vitro ADME, human
Conditions: diclofenac sodium, acid and potassium as single entities in formulations similar to the examples; particularly with oleic acid and dipropylene glycol
Protocol: The flux data was collected from an in-vitro permeation study utilizing modified Franz cells with stratum corneum obtained from human cadaver skin by the heat separation technique. The receiver solution for this study was 0.9% NaCl with 0.01% NaN3 in deionized water. Franz cells were maintained at about 32° C. for the duration of this study. Flux samples were analyzed by HPLC.

flux rate, drug forms fluxed as single entities: highest rate
Compound: O=C(O)Cc1ccccc1Nc1c(Cl)cccc1Cl [diclofenac potassium]
